In publication PMC5622025, “Synthesis and biological evaluation of tricyclic matrinic derivatives as a class of novel anti-HCV agents” (Chemistry Central Journal, 2017):
Structures can show the parent of a compound that is named as a salt. Where two headings read alike, the source gives them in different places.

Columns and labels:
HCV = experiment: Anti-HCV effect in vitro, intracellular HCV RNA by real-time RT-PCR in infected Huh7.5 cells; type: cell-based, hepatitis C virus; conditions: for EC50: read-out: EC50 (concentration required to inhibit HCV growth by 50%); for SI (ratio of CC50 to EC50): Huh7.5 cells
Protocol: (§1) All the target compounds were evaluated for their anti-HCV activities (EC50) and cytotoxicities (CC50) in human Huh7.5 cells using specific real-time RT-PCR assay, as described earlier. As an important indicator, the selectivity index (SI) was calculated as a ratio of CC50 to EC50. Anti-HCV ability of a given compound was estimated by combining its EC50 with SI values.
(§2) Human liver cell line Huh7.5 cells (kindly provided by Vertex Pharmaceuticals, Inc., Boston, MA) were cultured in Dulbecco’s modified eagle medium (DMEM) supplemented with 10% inactivated fetal bovine serum and 1% penicillin–streptomycin (invitrogen). Cells were digested with 0.05% trypsin-ethylene diamine tetraacetic acid (EDTA) and split twice a week.
Huh7.5 cells were seeded into 96-well or 6-well plates (Costar) at a density of 3 × 10^4 cells cm^−2. After 24 h incubation, the cells were infected with HCV viral stock (45 IU cell^−1) and simultaneously treated with the test compounds at various concentrations or solvent as control. The culture medium was removed after 72 h inoculation, the intracellular total RNA (in 96-well plates) was extracted with RNeasy Mini Kit (Qiagen), and total intracellular proteins (in 6-well plates) were extracted with Cyto-Buster Protein Extraction Reagent added with 1 mM protease inhibitor cocktail. The intracellular HCV RNA was quantified with a real time one-step reverse-transcription polymerase chain reaction (RT-PCR).

Huh7.5 cells = experiment: Cytotoxicity assay (MTT) in Huh7.5 cells; type: cell-based, human
Protocol: as §1, §2
(§3) Huh7.5 cells were seeded into 96-well plates (Costar) at a density of 3 × 10^4 cells cm^−2. After 24 h incubation, fresh culture medium containing test compounds at various concentrations were added. 72 h later, cytotoxicity was evaluated with 3-(4,5-dimethylthiazol-2-yl)-2,5-diphenyltetrazolium bromide (MTT).

[1] = Cytotoxicity assay (MTT) in Huh7.5 cells; type: cell-based, human; conditions: human
Protocol: as §1, §2, §3

[2] = HCV-infected Huh7.5 cells, 72 h, real-time RT-PCR
[3] = Huh7.5 cells, 72 h, MTT, read-out: CC50 (cytotoxic concentration required to inhibit Huh7.5 cell growth by 50%)
[4] = Hepatitis C virus, Huh7.5, 72 h

Row | SMILES | melting point [°C] | EC50 (HCV; [2]) [µM] | SI (ratio of CC50 to EC50) (HCV) | CC50 (Huh7.5 cells) [µM] | CC50 (Huh7.5 cells; [3]) [µM] | EC50 (HCV; [4]) [µM] | CC50 at 72 h [1] [µM] | CC50 at 72 h [1, 3] [µM]
1 | O=[N+]([O-])c1cccc(CN2C[C@@H]3CCCN4CCC[C@@H]([C@H]34)[C@H]2/C=C\CCO)c1 (as salt: hydrochloride) [compound 20, (Z)-12N-(3-nitrobenzyl)-Δ^βγ-matrinic crotonol dihydrochloride] | 143 to 145 | – | – | – | – | – | – | –
2 | OCCCC[C@@H]1[C@H]2CCCN3CCC[C@@H](CN1Cc1ccc(F)cc1)[C@@H]23 [3a] | – | 2.99 ± 1.51 | 95.3 | 285 ± 7.45 | – | – | – | –
3 | CCCN1C[C@@H]2CCCN3CCC[C@@H]([C@H]23)[C@H]1CCCCO [3b] | – | 16.4 ± 10.9 | > 30.5 | > 500 | – | – | – | –
4 | CCCCCCCN1C[C@@H]2CCCN3CCC[C@@H]([C@H]23)[C@H]1CCCCO [3c] | – | 1.01 ± 0.55 | 32.9 | 33.3 ± 6.49 | – | – | – | –
5 | CCCCCCCCN1C[C@@H]2CCCN3CCC[C@@H]([C@H]23)[C@H]1CCCCO [3d] | – | 0.8 ± 0.26 | 22.3 | 17.8 ± 2.44 | – | – | – | –
6 | COC(=O)CCC[C@@H]1[C@H]2CCCN3CCC[C@@H](CN1Cc1ccc(OC)cc1)[C@@H]23.Cl.Cl [6a, Methyl 12N-(4-methoxybenzyl)matrinate dihydrochloride] | – | 7.01 ± 1.51 | 59.1 | 414 ± 7.34 | – | – | – | –
7 | COC(=O)CCC[C@@H]1[C@H]2CCCN3CCC[C@@H](CN1Cc1ccc(C)cc1)[C@@H]23 [6b, Methyl 12N-(4-methylbenzyl)matrinate] | – | 1.73 ± 1.36 | 76.8 | – | 133 ± 7.53 | – | – | –
8 | C=Cc1ccc(CN2C[C@@H]3CCCN4CCC[C@@H]([C@H]34)[C@H]2CCCC(=O)OC)cc1 [6c, Methyl 12N-(4-vinylbenzyl)matrinate] | – | 1.61 ± 0.76 | 50.4 | – | 81.2 ± 12.9 | – | – | –
9 | COC(=O)CCC[C@@H]1[C@H]2CCCN3CCC[C@@H](CN1Cc1ccc(F)cc1F)[C@@H]23 [6d, Methyl 12N-(2,4-difluorobenzyl)matrinate] | – | 1.69 ± 1.47 | 154 | – | 261 ± 28.7 | – | – | –
10 | COC(=O)CCCC1C2CCCN3CCCC(CN1Cc1ccc([N+](=O)[O-])cc1)C23.Cl.Cl (stereo not drawn) [6e, Methyl 12N-(4-nitrobenzyl)matrinate dihydrochloride] | – | 14.2 ± 3.13 | 16.5 | 235 ± 48.2 | – | – | – | –
11 | COC(=O)CCC[C@@H]1[C@H]2CCCN3CCC[C@@H](CN1Cc1ccncc1)[C@@H]23 [6f, Methyl 12N-(pyridin-4-ylmethyl)matrinate] | – | 4.66 ± 0.35 | > 107 | > 500 | – | – | – | –
12 | Cl.Cl.OCCCCC1C2CCCN3CCCC(CN1Cc1ccc(Cl)cn1)C23 (stereo not drawn) [7 g, 12N-(5-Chloropyridin-2-ylmethyl)matrinol dihydrochloride] | – | 10.9 ± 5.59 | > 45.9 | > 500 | – | – | – | –
13 | O=C(CN1C[C@@H]2CCCN3CCC[C@@H]([C@H]23)[C@H]1CCCCO)Nc1ccccc1 [7 h, 12N-(2-Oxo-2-(phenylamino)ethyl)matrinol] | – | 46.7 ± 41 | > 10.7 | > 500 | – | – | – | –
14 | C=Cc1ccc(CN2C[C@@H]3CCCN4CCC[C@@H]([C@H]34)[C@H]2CCCCO)cc1.Cl.Cl [7c, 12N-(4-Vinylbenzyl)matrinol dihydrochloride] | – | 3.16 ± 0.51 | 45.3 | 143 ± 32.3 | – | – | – | –
15 | OCCCCC1C2CCCN3CCCC(CN1Cc1ccc(F)cc1F)C23 (stereo not drawn) [7d, 12N-(2,4-Difluorobenzyl)matrinol dihydrochloride] | – | < 2.06 | – | – | 266 ± 9.47 | – | – | –
16 | Cl.Cl.OCCCC[C@@H]1[C@H]2CCCN3CCC[C@@H](CN1Cc1ccncc1)[C@@H]23 [7e, 12N-(Pyridin-4-ylmethyl)matrinol dihydrochloride] | – | 9.03 ± 5.58 | > 55.4 | > 500 | – | – | – | –

Row | SMILES | melting point [°C] | EC50 (HCV; [2]) [µM] | SI (ratio of CC50 to EC50) (HCV) | CC50 (Huh7.5 cells) [µM] | CC50 (Huh7.5 cells; [3]) [µM] | EC50 (HCV; [4]) [µM] | CC50 at 72 h [1] [µM] | CC50 at 72 h [1, 3] [µM]
17 | OCCCCC1C2CCCN3CCCC(CN1Cc1cccnc1)C23 (stereo not drawn) [7f, 12N-(Pyridin-3-ylmethyl)matrinol] | – | 4.39 ± 3.01 | > 114 | > 500 | – | – | – | –
18 | Cl.Cl.O=C(CN1CC2CCCN3CCCC(C1CCCCO)C23)Nc1ccc(C(F)(F)F)cc1 (stereo not drawn) [7i, 12N-(2-Oxo-2-((4-(trifluoromethyl)phenyl)amino)ethyl)matrinol dihydrochloride] | – | 4.19 ± 1.44 | 20.6 | 86.2 ± 4.33 | – | – | – | –
19 | COc1ccc(CN2C[C@@H]3CCCN4CCC[C@@H]([C@H]34)[C@H]2CCCC(C)(C)O)cc1.Cl.Cl [10a, 1′,1′-Dimethyl-12N-(4-methoxybenzyl)matrinol dihydrochloride] | – | 11.7 ± 0.06 | 12.0 | > 140 | – | – | – | –
20 | Cc1ccc(CN2CC3CCCN4CCCC(C2CCCC(C)(C)O)C34)cc1.Cl.Cl (stereo not drawn) [10b, 1′,1′-Dimethyl-12N-(4-methylbenzyl)matrinol dihydrochloride] | – | 0.82 ± 0.26 | 67.9 | 55.7 ± 7.5 | – | – | – | –
21 | CCC(O)(CC)CCC[C@@H]1[C@H]2CCCN3CCC[C@@H](CN1Cc1ccc(C)cc1)[C@@H]23.Cl.Cl [10c, 1′,1′-Diethyl-12N-(4-methylbenzyl)matrinol dihydrochloride] | – | < 0.23 | > 53.5 | 12.3 ± 4.23 | – | – | – | –
22 | CC(C)(O)CCCC1C2CCCN3CCCC(CN1Cc1ccc(F)cc1F)C23.Cl.Cl (stereo not drawn) [10d, 1′,1′-Dimethyl-12N-(2,4-difluorobenzyl)matrinol dihydrochloride] | – | 6.55 ± 2.69 | 23.8 | 156 ± 37.9 | – | – | – | –
23 | CC(C)(O)CCC[C@@H]1[C@H]2CCCN3CCC[C@@H](CN1Cc1ccncc1)[C@@H]23 [10e, 1′,1′-Dimethyl-12N-(4-pyridylmethyl)matrinol] | – | 80.4 | – | > 500 | – | – | – | –
24 | COC(=O)C/C=C\C1C2CCCN3CCCC(CN1Cc1ccc(OC)cc1)C23 (stereo not drawn) [13a, (Z)-Methyl 12N-(4-methoxybenzyl)-Δ^βγ-matrinic crotonate] | – | 16.7 ± 4.71 | 19.5 | 326 ± 21 | – | – | – | –
25 | COC(=O)C/C=C\[C@@H]1[C@H]2CCCN3CCC[C@@H](CN1Cc1ccc(F)cc1)[C@@H]23.Cl.Cl [13b, (Z)-Methyl 12N-(4-fluorobenzyl)-Δ^βγ-matrinic crotonate dihydrochloride] | – | 18.1 ± 6.49 | 14.4 | 260 ± 84.8 | – | – | – | –
26 | COC(=O)C/C=C\[C@@H]1[C@H]2CCCN3CCC[C@@H](CN1Cc1cccc([N+](=O)[O-])c1)[C@@H]23.Cl.Cl [13c, (Z)-Methyl 12N-(3-nitrobenzyl)-Δ^βγ-matrinic crotonate dihydrochloride] | – | 40.4 ± 3.64 | 10.0 | – | 402 ± 83.6 | – | – | –
27 | COc1ccc(CN2CC3CCCN4CCCC(C2/C=C\CCO)C34)cc1.Cl.Cl (stereo not drawn) [14a, (Z)-12N-(4-Methoxybenzyl)-Δ^βγ-matrinic crotonol dihydrochloride] | – | 8.8 ± 2.15 | 24.3 | 214 ± 95 | – | – | – | –
28 | Cl.Cl.OCC/C=C\C1C2CCCN3CCCC(CN1Cc1ccc(F)cc1)C23 (stereo not drawn) [14b, (Z)-12N-4-(Fluorobenzyl)-Δ^βγ-matrinic crotonol dihydrochloride] | – | 13.6 ± 2.63 | 11.5 | 156 ± 65.8 | – | – | – | –
29 | CCC[C@H](NC(=O)[C@@H]1[C@H]2CCC[C@H]2CN1C(=O)[C@@H](NC(=O)[C@@H](NC(=O)c1cnccn1)C1CCCCC1)C(C)(C)C)C(=O)C(=O)NC1CC1 [Tela, telaprevir, reference compound] | – | – | 1950 | – | – | 0.02 ± 0.02 | 47.6 ± 0.61 | –
30 | COC(=O)CCC[C@@H]1[C@H]2CCCN3CCC[C@@H](CN1Cc1ccc(F)cc1)[C@@H]23 [compound 2] | – | 2.09 ± 1.65 | 131 | – | 274 ± 8.35 | – | – | –
31 | CCCC[C@@H]1[C@H]2CCCN3CCC[C@@H](CN1Cc1ccc(OC)cc1)[C@@H]23 [compound 9, 12N-4-methoxybenzyl matrinic butane] | 73 to 74 | – | 36.1 | – | – | 1.16 ± 0.25 | – | 41.9 ± 1.1
32 | O=[N+]([O-])c1cccc(CN2C[C@@H]3CCCN4CCC[C@@H]([C@H]34)[C@H]2/C=C\CCO)c1 [compound 20, (Z)-12N-(3-nitrobenzyl)-Δ^βγ-matrinic crotonol dihydrochloride] | – | – | 17.0 | – | – | 18.4 ± 1.64 | – | 312 ± 31.1
